{"source": "patent US7691416B2", "about": "“Methods of treating vascular disease” (priority 2002, dated 2010)", "key": {"p38 MAPK": {"system": "p38 MAPK", "experiment": "Western blot of phosphorylated p38 MAPK in SMC", "format": "cell-based, mouse", "from_the_text": "Animals. Male (250-350 g) Brown Norway rats (RT1^n) were used as aortic graft donors and male (250-350 g) Lewis rats (RT11) as recipients. Dawley (400-450 g) rats were used in the balloon injury model. Adult male C57BL/6, C57/S129, p21^−/− and p53^−/− null mice were purchased from Jackson Laboratory (Bar Harbor, Me.). mkk3^(−/−) null mice were generated as described Lu et al. (EMBO. 18:1845-1857 (1999)). The inos^−/− and enos^−/− mice were bred at the University of Pittsburgh. Aortic transplant model. Aortic transplantation was performed as described in Shimizu et al. (Nat. Med. 7:738-741 (2001)). Briefly, 3 to 4 cm of descending aorta was harvested from the donor and implanted between the renal arteries and the aortic bifurcation of the recipient. Both edges of the native abdominal aorta were ligated. Balloon injury model. Balloon angioplasty was carried out as described in Murakami et al. (Atherosclerosis 157:361-368 (2001)). Briefly, a 2 Fr. arterial embolectomy catheter (Baxter, Chicago, Ill.) was inserted into the common carotid artery, and injury was created by inflating the balloon to 5 atmospheres of pressure for 5 minutes. The arteries were flushed and the external carotid artery was ligated, ensuring return of blood flow through the common and internal carotid arteries. Injury of the vessel wall and subsequent pathological analysis was made in a manner that was blinded to the treatment group. CO exposure. CO was delivered to animals as described in Otterbein et al. (Nat. Med. 6:422-428 (2000)). Graft donors and recipients were exposed to CO (250 ppm) for two days before transplantation and for 56 days immediately following transplantation. In the balloon injury model, rats received either no pretreatment or were exposed to CO (250 ppm) for one hour prior to injury. Following surgery rats were housed in room air for two weeks. Cells. Primary mouse and rat smooth muscle cells (SMC) were isolated and cultured as described in Laubach et al. (Proc Natl Acad Sci USA 92:10688-9 (1995)). Mouse SMC isolated from HO-1^−/− mice were obtained as described in Duckers et al. (Nat. Med. 7:693-698 (2001)). Cell treatment and reagents. Guanylate cyclase inhibitor 1H(1,2,4) oxadiazolo(4,3-a)quinoxalin-1 (ODQ; Calbiochem-Novabiochem, San Diego, Calif.; 10-100 μM) and p38 MAPK inhibitor pyridinyl imidazol SB203580 (Calbiochem; 5-20 μM) were dissolved in DMSO. […] [^3H]thymidine incorporation was measured by scintillation spectroscopy and presented as mean counts/min/well. […] Areas from eight to ten captured images were calculated using digital imaging software as number of pixels corresponding to those areas. Twenty-four to forty-eight sections from each group were statistically analyzed with SPSS software version 10. […]"}, "p21Cip1": {"system": "p21Cip1", "experiment": "Western blot of p21Cip1 expression", "format": "cell-based, mouse", "from_the_text": "(§1) Animals. Male (250-350 g) Brown Norway rats (RT1^n) were used as aortic graft donors and male (250-350 g) Lewis rats (RT11) as recipients. Dawley (400-450 g) rats were used in the balloon injury model. Adult male C57BL/6, C57/S129, p21^−/− and p53^−/− null mice were purchased from Jackson Laboratory (Bar Harbor, Me.). mkk3^(−/−) null mice were generated as described Lu et al. (EMBO. 18:1845-1857 (1999)). The inos^−/− and enos^−/− mice were bred at the University of Pittsburgh. Aortic transplant model. Aortic transplantation was performed as described in Shimizu et al. (Nat. Med. 7:738-741 (2001)). Briefly, 3 to 4 cm of descending aorta was harvested from the donor and implanted between the renal arteries and the aortic bifurcation of the recipient. Both edges of the native abdominal aorta were ligated. Balloon injury model. Balloon angioplasty was carried out as described in Murakami et al. (Atherosclerosis 157:361-368 (2001)). Briefly, a 2 Fr. arterial embolectomy catheter (Baxter, Chicago, Ill.) was inserted into the common carotid artery, and injury was created by inflating the balloon to 5 atmospheres of pressure for 5 minutes. The arteries were flushed and the external carotid artery was ligated, ensuring return of blood flow through the common and internal carotid arteries. Injury of the vessel wall and subsequent pathological analysis was made in a manner that was blinded to the treatment group. CO exposure. CO was delivered to animals as described in Otterbein et al. (Nat. Med. 6:422-428 (2000)). Graft donors and recipients were exposed to CO (250 ppm) for two days before transplantation and for 56 days immediately following transplantation. In the balloon injury model, rats received either no pretreatment or were exposed to CO (250 ppm) for one hour prior to injury. Following surgery rats were housed in room air for two weeks. Cells. Primary mouse and rat smooth muscle cells (SMC) were isolated and cultured as described in Laubach et al. (Proc Natl Acad Sci USA 92:10688-9 (1995)). Mouse SMC isolated from HO-1^−/− mice were obtained as described in Duckers et al. (Nat. Med. 7:693-698 (2001)). Cell treatment and reagents. Guanylate cyclase inhibitor 1H(1,2,4) oxadiazolo(4,3-a)quinoxalin-1 (ODQ; Calbiochem-Novabiochem, San Diego, Calif.; 10-100 μM) and p38 MAPK inhibitor pyridinyl imidazol SB203580 (Calbiochem; 5-20 μM) were dissolved in DMSO. The cGMP analogue 8-bromo-cGMP sodium salt (8-Br-cGMP; Sigma-Aldrich, St. Louis, Mo.; 10-100 μM) and the PKG inhibitor (10-100 μM; Alexis Biochemicals) were dissolved in water. Cell counts and [^3H] thymidine incorporation. Rat and mouse SMC were isolated and cultured as described in Peyton et al. (Blood 99:4443-4448 (2002)). Proliferation assays were carried out as described in Petkova et al. (J Biol. Chem. 276:7932-7936 (2001)). For [^3H] thymidine incorporation studies, cells were serum-starved overnight and then stimulated with 10% serum containing 5 μCi/ml [^3H] thymidine (New England Nuclear, Boston Mass.). [^3H]thymidine incorporation was measured by scintillation spectroscopy and presented as mean counts/min/well. Histomorphometric analysis. Aortic grafts and carotid arteries were harvested at 56 and 14 days respectively. Vessels were fixed, embedded, and serially sectioned (5μ) in toto. Every third slide was stained with Hematoxylin and Eosin (H&E) for histomorphometric analyses. In both models, one or two images per slide at a resolution of 1520×1080 pixels were captured at a magnification of 25× with a Zeiss microscope (Axioskop, Iowa City, Iowa), RT color SPOT (Diagnostic Instrument, Inc., Saint Joseph, Mich.) and Windows NT (Compaq Computer) using Adobe Photoshop version 5.5 software. Areas from eight to ten captured images were calculated using digital imaging software as number of pixels corresponding to those areas. Twenty-four to forty-eight sections from each group were statistically analyzed with SPSS software version 10. Immunostaining and cell population histomorphometric analysis. […]"}, "mouse SMC": {"system": "mouse SMC", "experiment": "SMC proliferation, [3H]thymidine incorporation", "format": "cell-based", "from_the_text": "as §1"}, "[1]": {"system": "intimal hyperplasia after balloon injury of the carotid artery", "experiment": "Balloon injury model of the carotid artery", "format": "in vivo, rat", "settings": "NO 250 ppm; one hour pre-treatment", "from_the_text": "(§2) Animals. Male (250-350 g) Brown Norway rats (RT1^n) were used as aortic graft donors and male (250-350 g) Lewis rats (RT11) as recipients. Dawley (400-450 g) rats were used in the balloon injury model. Adult male C57BL/6, C57/S129, p21^−/− and p53^−/− null mice were purchased from Jackson Laboratory (Bar Harbor, Me.). mkk3^(−/−) null mice were generated as described Lu et al. (EMBO. 18:1845-1857 (1999)). The inos^−/− and enos^−/− mice were bred at the University of Pittsburgh. Aortic transplant model. Aortic transplantation was performed as described in Shimizu et al. (Nat. Med. 7:738-741 (2001)). Briefly, 3 to 4 cm of descending aorta was harvested from the donor and implanted between the renal arteries and the aortic bifurcation of the recipient. Both edges of the native abdominal aorta were ligated. Balloon injury model. Balloon angioplasty was carried out as described in Murakami et al. (Atherosclerosis 157:361-368 (2001)). […] [^3H]thymidine incorporation was measured by scintillation spectroscopy and presented as mean counts/min/well. […] Areas from eight to ten captured images were calculated using digital imaging software as number of pixels corresponding to those areas. Twenty-four to forty-eight sections from each group were statistically analyzed with SPSS software version 10. […]"}, "[2]": {"experiment": "Nitric oxide exposure of rats before balloon angioplasty", "format": "in vivo, rat", "settings": "NO administered at 500 ppm, 1 hour", "from_the_text": "as §2"}}}
{"compound": "Nc1nc2c(nc(Br)n2[C@@H]2O[C@@H]3COP(=O)([O-])O[C@H]3[C@H]2O)c(=O)[nH]1.[Na+]", "note": "[8-Br-cGMP, 8-Bromoguanosine 3′-5′-cyclic monophosphate sodium salt, reference compound]", "values": [{"measurement": "p38 MAPK activation", "setting": "p38 MAPK; SMC exposed to the cGMP analogue", "value": "activated"}, {"measurement": "p21Cip1 expression", "setting": "p21Cip1; SMC exposed to the cGMP analogue, comparably to CO", "value": "increased"}, {"measurement": "Suppression of proliferation by the cGMP analogue", "setting": "mouse SMC; SMC derived from p21-/- mice", "value": "impaired"}, {"measurement": "SMC proliferation", "setting": "mouse SMC; wild type SMC exposed to the cGMP analogue", "value": "suppressed"}]}
{"compound": "[N]=O", "note": "[NO, Nitric Oxide, reference compound]", "values": [{"measurement": "Intimal thickening triggered by balloon injury", "setting": "[1]", "value": "did not modulate"}, {"measurement": "Lethality", "setting": "[2]", "value": "lethal"}]}
{"compound": "O=c1onc2cnc3ccccc3n12", "note": "[ODQ, 1H(1,2,4) oxadiazolo(4,3-a)quinoxalin-1, reference compound]", "values": [{"measurement": "Activation of p38 MAPK by CO when cGMP generation is blocked", "setting": "p38 MAPK; CO plus ODQ", "value": "abolished"}, {"measurement": "Ability of CO to up-regulate p21Cip1 expression under guanylate cyclase inhibition", "setting": "p21Cip1; CO plus ODQ", "value": "impaired"}, {"measurement": "Ability of CO to suppress SMC proliferation under guanylate cyclase inhibition", "setting": "mouse SMC; CO 250 ppm plus ODQ", "value": "impaired"}]}
{"compound": "C[S+]([O-])c1ccc(-c2nc(-c3ccncc3)c(-c3ccc(F)cc3)[nH]2)cc1", "note": "(centres unmarked) [SB203580, reference compound]", "values": [{"measurement": "Ability of 8Br-cGMP to up-regulate expression of p21Cip1 in presence of p38 MAPK inhibitor", "setting": "p21Cip1; 8Br-cGMP plus SB203580", "value": "suppressed"}, {"measurement": "Ability of CO to up-regulate expression of p21Cip1 in presence of p38 MAPK inhibitor", "setting": "p21Cip1; CO 250 ppm plus SB203580", "value": "blocked"}, {"measurement": "Anti-proliferative effect of 8Br-cGMP in presence of p38 MAPK inhibitor", "setting": "mouse SMC; 8Br-cGMP plus SB203580", "value": "abrogated"}, {"measurement": "Anti-proliferative effect of CO in presence of p38 MAPK inhibitor", "setting": "mouse SMC; CO 250 ppm plus SB203580", "value": "suppressed"}, {"measurement": "Effects of CO on proliferation in presence of p38 MAPK inhibitor", "setting": "mouse SMC; SMC from p21-/- mice, CO 250 ppm plus SB203580", "value": "did not modulate"}]}
